This is an account of results in patent publication US5112944A, “Cyclic tetrapeptide and process for preparing the same” (Shionogi & Co., Ltd., priority 1989, dated 1992).

In assay [1] the test system is NIH3T3 cells transformed with sis oncogene. The experiment in a line: Cell number / cell proliferation of transformed cells (hemocytometer). Format: cell-based. The conditions noted are these: for Cell number: 2 days after the incubation; for Percentage of increase: 2 days, untreated = 100. As to the method: (§1) The employed culture solution was prepared by adding 9.5 g of DALBECCO'S EAGLE MEM medium (made by NISSUI SEIYAKU CO., LTD.) and 20 ml of 7% sodium bicarbonate to 1 l of distilled water and then adding fetal bovine serum (made by Flow Laboratories, Inc., U.S.A.) to be 10% by volume at the final concentration.
(§2) To each well of a 12-well plastic dish made by Flow Laboratories, Inc., 2 ml of the above-mentioned culture solution, 2×10^4 cells/ml of NIH3T3 cells transformed with sis oncogene (provided by National Cancer Institute of the U.S.; Science, 218, 1131 (1982)) and each test compound (RF-1023-A or RF-1023-B) in each concentration (5 to 400 ng/ml) were added and cultured at 37° C. in 5% CO2 incubator. Twenty-four hours later the morphology of the cells was observed and detransformation activity (activity for inhibiting transformation of NIH3T3 cells transformed with the oncogene and returning to normal flat morphology of cells) was estimated. Two days after the incubation, cells subjected to the medium containing RF-1023-A were dispersed with 0.05% trypsin, and the cell number was measured by means of hemocytometer.

For assay [2] the test system is unchanged. The experiment in a line: Detransformation activity (return of transformed cells to normal flat morphology). Format: cell-based. As for the experimental part: as §1, §2
[3] abbreviates: 24 hours, lowest concentration tested.

Where a SMILES comes first, the peptide text is derived from it. [ ]: non-standard residue; d: D form. Aoe = N[C@@H](CCCCCC(=O)[C@@H]1CO1)C(=O)O; dPip = O=C(O)[C@H]1CCCCN1

For the compound `O=C1N[C@@H](Cc2ccccc2)C(=O)N2CCCC[C@@H]2C(=O)N[C@@H](CCCCCC(=O)[C@@H]2CO2)C(=O)N[C@H]1Cc1ccccc1` [RF-1023-A] (cyclo([Aoe]FF[dPip])), the Cell number in assay [1] (5 ng/ml test compound) is reported as 3.8 × 10^5; in assay [1] (50 ng/ml test compound), 3.4 × 10^5; in assay [1] (100 ng/ml test compound), 1.5 × 10^5; in assay [1] (200 ng/ml test compound), 1.1 × 10^5; in assay [1] (400 ng/ml test compound), 1.1 × 10^5. Further, the Percentage of increase in assay [1] (5 ng/ml test compound) is listed as 35%; in assay [1] (50 ng/ml test compound), 29%; in assay [1] (100 ng/ml test compound), 0%; in assay [1] (200 ng/ml test compound) it was -6%; in assay [1] (400 ng/ml test compound), -6%. Moreover, in assay [2] (setting [3]), the “Concentration at which detransformation activity is shown” value (shortened to “Concentration”) worked out at 5 ng/mL.

For `CC(=O)NCCCCCCNC(C)=O` [hexamethylene bisacetamide, reference compound], the “Concentration” value in assay [2] (same experiment system) was 3e+06 ng/mL.

As for `O=C1N[C@@H](Cc2ccccc2)C(=O)N2CCC[C@@H]2C(=O)N[C@@H](CCCCCC(=O)[C@@H]2CO2)C(=O)N[C@H]1Cc1ccccc1` [RF-1023-B] (cyclo(FF[dP][Aoe])), the “Concentration” value in assay [2] (setting [3]) was 5 ng/mL.
